In patent US20090221642A1, “MUSCARINIC RECEPTOR AGONISTS, COMPOSITIONS, METHODS OF TREATMENT THEREOF, AND PROCESSES FOR PREPARATION THEREOF-176” (AstraZeneca AB, priority 2008, published 2009) one finds EC50 data, which are given here for eleven molecules.

Broadly, the EC50 is the concentration giving half of the maximal effect.

For this experiment, the target named is T1, hM1 (human Muscarinic receptor subtype 1) (Homo sapiens, UniProt P11229).
T1 construct: expressed in transfected cells; host or cells: CHO cells (Chinese hamster ovary cells, ATCC)
T1 sequence (P11229 1-460): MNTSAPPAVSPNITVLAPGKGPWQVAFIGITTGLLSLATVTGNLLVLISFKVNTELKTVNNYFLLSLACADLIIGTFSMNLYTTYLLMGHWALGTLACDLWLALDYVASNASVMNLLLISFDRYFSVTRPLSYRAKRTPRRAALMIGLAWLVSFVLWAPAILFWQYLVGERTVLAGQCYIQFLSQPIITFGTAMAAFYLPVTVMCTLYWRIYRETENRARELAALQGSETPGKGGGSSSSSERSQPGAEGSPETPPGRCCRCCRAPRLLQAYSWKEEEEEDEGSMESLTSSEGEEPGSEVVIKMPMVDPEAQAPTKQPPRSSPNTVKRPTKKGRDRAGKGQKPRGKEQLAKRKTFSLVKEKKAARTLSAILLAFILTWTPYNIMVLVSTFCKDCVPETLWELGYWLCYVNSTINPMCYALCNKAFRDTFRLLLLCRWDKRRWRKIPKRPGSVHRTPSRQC
In words: Human M1 calcium mobilization FLIPR assay. The class given is cell-based. As to conditions: hM1 expressed in CHO cells, intracellular Ca2+ release, read-out: hM1 EC50. The method, then:
Human M1, rat M1, human M3 and human M5 Calcium Mobilization FLIPR™ Assay
The compound activity in the present invention (EC50 or IC50) is measured using a 384 plate-based imaging assay that monitors drug induced intracellular Ca^2+ release in whole cells. Activation of hM1 (human Muscarinic receptor subtype 1, gene bank access NM_000738), rM1 (rat Muscarinic receptor subtype 1, gene bank access NM_080773), hM3 (human Muscarinic receptor subtype 3, gene bank access NM_000740NM_000740) and hM5 (human Muscarinic receptor subtype 5, gene bank access NM_0121258), receptors expressed in CHO cells (Chinese hamster ovary cells, ATCC) is quantified in a Molecular Devices FLIPR II™ instrument as an increase in fluorescent signal. Inhibition of hM3 and hM5 by compounds is determined by the decrease in fluorescent signal in response to 2 nM acetylcholine activation.
Prior to experiment, the cell culture medium is removed from the plates by inversion. […] Plates are incubated at 37° C. for 60 minutes prior to start the experiment. The incubation is terminated by washing the cells four times in assay buffer, leaving a residual 25 μl buffer per well. Cell plates are then transferred to the FLIPR, ready for compound additions.
The day of experiment, acetylcholine and compounds are diluted in assay buffer in three-fold concentration range (10 points serial dilution) for addition by FLIPR instrument. For all calcium assays, a baseline reading is taken for 10 seconds followed by the addition of 12.5 μl of compounds, resulting in a total well volume of 37.5 μl. Data is collected every second for 60 pictures and then every 6 seconds for 20 pictures prior to the addition of agonist. For hM3 and hM5, before agonist addition, a second baseline reading is taken for 10 seconds followed by the addition of 12.5 μl of agonist or buffer, producing a final volume of 50 μl. After agonist stimulation, the FLIPR continues to collect data every second for 60 pictures and then every 6 seconds for 20 pictures. The fluorescence emission is read using filter 1 (emission 510-570 nm) by the FLIPR on board CCD camera.
Calcium mobilization output data are calculated as the maximal relative fluorescence unit (RFU) minus the minimal value for both compound and agonist reading frame (except for hM1 and rM1 using only the maximal RFU). Data are analyzed using sigmoidal fits of a non-linear curve-fitting program (XLfit version 4.2.2 Excel add-in version 4.2.2 build 18 math 1Q version 2.1.2 build 18). All pEC50 and plC50 values are reported as arithmetic means ±standard error of mean of ‘n’ independent experiments.
(In general: A change in cytosolic calcium serves as a functional read-out for many receptors and channels.)
Turning to `COC(=O)N1CCC(C)(N2CCC(N3C(=O)Cc4cc(F)ccc43)CC2)C1` (racemic) [Example 78, methyl 3-(4-(5-fluoro-2-oxoindolin-1-yl)piperidin-1-yl)-3-methylpyrrolidine-1-carboxylate], the EC50 worked out at 76.2 nM.

As for `CCOC(=O)N1CCC(C)(N2CCC(n3c(=O)[nH]c4cc(C)ccc43)CC2)C1` (single isomer, unassigned) [Example 13, ethyl 3-methyl-3-(4-(5-methyl-2-oxo-2,3-dihydro-1H-benzo[d]imidazol-1-yl)piperidin-1-yl)pyrrolidine-1-carboxylate], the EC50 is 70.1 nM.

Turning to `CC#CCOC(=O)N1CCC(C)(N2CCC(n3c(=O)[nH]c4ccc(C)cc43)CC2)C1` (single isomer, unassigned) [Example 18, but-2-ynyl 3-methyl-3-(4-(6-methyl-2-oxo-2,3-dihydro-1H-benzo[d]imidazol-1-yl)piperidin-1-yl)pyrrolidine-1-carboxylate], the EC50 came to 158 nM.

Regarding `CC#CCOC(=O)N1CCC(C)(N2CCC(n3c(=O)[nH]c4cc(C)ccc43)CC2)C1` (single isomer, unassigned) [Example 19, but-2-ynyl 3-methyl-3-(4-(5-methyl-2-oxo-2,3-dihydro-1H-benzo[d]imidazol-1-yl)piperidin-1-yl)pyrrolidine-1-carboxylate], the concentration for a half-maximal effect (EC50) came out at 324 nM.

Consider `Cc1ccc2c(c1)[nH]c(=O)n2C1CCN(C2(C)CCN(C(=O)OCCF)C2)CC1` (single isomer, unassigned) [Example 29, 2-fluoroethyl 3-methyl-3-(4-(5-methyl-2-oxo-2,3-dihydro-1H-benzo[d]imidazol-1-yl)piperidin-1-yl)pyrrolidine-1-carboxylate], for which the 50% effective concentration (EC50) turned out to be 166 nM.

Regarding `COC(=O)N1CCC(C)(N2CCC(n3c(=O)[nH]c4ccccc43)CC2)C1` (single isomer, unassigned) [Example 30, methyl 3-methyl-3-(4-(2-oxo-2,3-dihydro-1H-benzo[d]imidazol-1-yl)piperidin-1-yl)pyrrolidine-1-carboxylate], the concentration giving a half-maximal response (EC50) is 108 nM.

Regarding `CC#CCOC(=O)N1CCC(C)(N2CCC(n3c(=O)[nH]c4cc(F)ccc43)CC2)C1` (single isomer, unassigned) [Example 35, but-2-ynyl 3-(4-(5-fluoro-2-oxo-2,3-dihydro-1H-benzo[d]imidazol-1-yl)piperidin-1-yl)-3-methylpyrrolidine-1-carboxylate], the EC50 was 56.9 nM.

Regarding `COC(=O)N1CCC(C)(N2CCC(n3c(=O)[nH]c4cc(F)ccc43)CC2)C1` (single isomer, unassigned) [Example 37, methyl 3-(4-(5-fluoro-2-oxo-2,3-dihydro-1H-benzo[d]imidazol-1-yl)piperidin-1-yl)-3-methylpyrrolidine-1-carboxylate], the 50% effective concentration (EC50) came out at 76.5 nM.

On to `CC1(N2CCC(n3c(=O)[nH]c4cc(F)ccc43)CC2)CCN(C(=O)OCCF)C1` (single isomer, unassigned) [Example 38, 2-fluoroethyl 3-(4-(5-fluoro-2-oxo-2,3-dihydro-1H-benzo[d]imidazol-1-yl)piperidin-1-yl)-3-methylpyrrolidine-1-carboxylate], for which the EC50 worked out at 112 nM.

In the case of `C#CCOC(=O)N1CCC(C)(N2CCC(n3c(=O)[nH]c4cc(C)ccc43)CC2)C1` (single isomer, unassigned) [Example 42, prop-2-ynyl 3-methyl-3-(4-(5-methyl-2-oxo-2,3-dihydro-1H-benzo[d]imidazol-1-yl)piperidin-1-yl)pyrrolidine-1-carboxylate], the EC50 amounted to 235 nM.

In the case of `COC(=O)N1CCC(C)(N2CCC(n3c(=O)[nH]c4cc(C)ccc43)CC2)C1` (single isomer, unassigned) [Example 46, methyl 3-methyl-3-(4-(5-methyl-2-oxo-2,3-dihydro-1H-benzo[d]imidazol-1-yl)piperidin-1-yl)pyrrolidine-1-carboxylate], the EC50 amounted to 132 nM.
